# Assay results taken from patent publication EP2902035B1, “Cell-permeable peptide inhibitors of the JNK signal transduction pathway for use in the treatment of inflammatory eye diseases” (Xigen Inflammation Ltd., priority 2010, dated 2012).
# Tested on: polymorphonuclear cells (PMN)
# Assay: Quantification of infiltrating polymorphonuclear cells on histological sections in EIU
# Format: in vivo, Lewis rats
# Conditions: at 24 hours, mean ± SEM
# Description: For immunohistochemistry, eyeballs were collected and fixed for 1h at room temperature in phosphate buffered saline (PBS) containing 4% paraformaldehyde before being rinsed overnight in PBS. The next day, samples were embedded and frozen in optimal cutting-temperature (OCT) compound (Tissue-Tek®, Sakura Finetek, Zoeterwoude, Netherland) and stored at -80°C. Frozen antero-posterior sections of eyes (10 µm thick) were performed at the optic nerve level using a cryostat (Leica CM 3050S, Rueil-Malmaison, France) and mounted on super-frost slides for immunohistochemical analysis.
# A second set of experiment was designed to evaluate the anti-inflammatory effect of the JNK-inhibitor (poly-)peptide of SEQ ID NO: 11 at the cellular and tissue level as well as the biodistribution of this molecule 24 hours after administration. Rats were randomized into 11 experimental groups. 6 groups of rats with uveitis: untreated uveitic rats, rats injected intravenously with NaCl or the JNK-inhibitor (poly-)peptide of SEQ ID NO: 11 and rats injected intravitreously with the vehicle, the JNK-inhibitor (poly-)peptide of SEQ ID NO: 11 or dexamethasone. The 5 additional groups without uveitis were: untreated healthy rats, rats treated by NaCl IV or the JNK-inhibitor (poly-)peptide of SEQ ID NO: 11 IV and rats injected IVT with NaCl or the JNK-inhibitor (poly-)peptide of SEQ ID NO: 11. Three eyes from separate rats were collected per group and used for immunohistochemistry.
# To characterize the cellular infiltrate, sections were double-stained with ED1 and iNOS. […] After staining nuclei with DAPI (Sigma-Aldrich, Saint-Quentin Fallavier, France), sections were mounted in PBS/Glycerol (1/1) and observed by fluorescence photomicroscopy (FXA, Microphot, Nikon, Melville, USA). […] ED1 positive cells and polymorphonuclear cells, identified by the shape of their nuclei stained with DAPI, were quantified on histological sections. […] Results were expressed as mean ± standard error of the mean (SEM).
smiles,measurement,setting,value
CC(C)C[C@@H](NC(=O)[C@@H](Cc1ccccc1)NC(=O)[C@H]1CCCN1C(=O)[C@@H](CCC(N)=O)NC(=O)[C@H](NC(=O)[C@H]1CCCN1C(=O)[C@@H](CCCNC(=N)N)NC(=O)[C@@H](CO)NC(=O)[C@@H](CCC(N)=O)NC(=O)[C@H](N)CC(=O)O)C(C)C)C(=O)N[C@H](CC(N)=O)C(=O)N[C@H](CC(C)C)C(=O)N[C@@H](C(=O)N[C@@H](C(=O)N1CCC[C@@H]1C(=O)N[C@H](CCCNC(=N)N)C(=O)N[C@H](CCCCN)C(=O)N1CCC[C@@H]1C(=O)N[C@H](CCCNC(=N)N)C(=O)N1CCC[C@@H]1C(=O)N1CCC[C@@H]1C(=O)N[C@H](CCCNC(=N)N)C(=O)N[C@H](CCCNC(=N)N)C(=O)N[C@H](CCCNC(=N)N)C(=O)N[C@H](CCC(N)=O)C(=O)N[C@H](CCCNC(=N)N)C(=O)N[C@H](CCCNC(=N)N)C(=O)N[C@H](CCCCN)C(=O)N[C@H](CCCCN)C(=O)N[C@H](CCCNC(=N)N)C(=O)NCC(=O)O)[C@H](C)O)[C@H](C)O [SEQ ID NO: 11],number of polymorphonuclear cells (PMN),IV administration (20 µg/kg),60 ± 6
same,number of polymorphonuclear cells (PMN),IVT injection (SEQ ID NO: 11: 0.2 µg/injection),40 ± 5
